This assay addresses T1, human 5-HT1A receptor (Homo sapiens, UniProt P08908).
T1 construct: expressed in transfected cells; host or cells: CHO (HTR1A&Ga15-CHO)
T1 sequence (P08908 1-422): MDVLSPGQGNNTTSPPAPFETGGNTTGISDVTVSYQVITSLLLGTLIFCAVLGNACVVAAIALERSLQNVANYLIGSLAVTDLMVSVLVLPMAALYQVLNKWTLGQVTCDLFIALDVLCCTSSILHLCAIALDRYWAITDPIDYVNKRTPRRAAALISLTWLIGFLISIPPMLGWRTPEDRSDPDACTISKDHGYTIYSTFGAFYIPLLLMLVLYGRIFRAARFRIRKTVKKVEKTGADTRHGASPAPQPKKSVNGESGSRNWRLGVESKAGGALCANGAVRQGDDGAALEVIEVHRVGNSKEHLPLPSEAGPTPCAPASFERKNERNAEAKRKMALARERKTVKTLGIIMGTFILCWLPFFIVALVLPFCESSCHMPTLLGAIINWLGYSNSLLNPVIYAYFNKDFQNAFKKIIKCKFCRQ
Description: Human 5-HT1A: Functional FLIPR assay (agonist mode). It is filed as cell-based. The conditions noted are these: for RFU@10 μM: @10 μM (head), footnote: curve fitting with activation (%) @ 10 mM with RFU, RFU=Fmax−Fmin; for EC50: FLIPR calcium, agonist mode, HTR1A&Gα15-CHO cells, ND: not detected, read-out: h5-HT1A, EC50. As for the experimental part:
The potential excitatory effects of compounds targeting on 5-hydroxytryptamine receptor 1A (5-HT1A) under agonist mode was assessed.
HTR1A&Ga15-CHO cells were cultured in DMEM/F12 medium containing 10% dialyzed FBS, 1x penicillin-streptomycin and 600 μg/mL Hygromycin B. The cells were passaged about three times a week, maintained between ~30% to ~90% confluence.
• 1. The cell culture medium (DMEM/F12 medium containing 10% dialyzed FBS, 1x penicillin-streptomycin and 600 μg/mL Hygromycin B), TrypLE™ Express and DPBS was warmed to R.T. in advance. • 2. The cell culture medium was removed from flask. Washed cells with DPBS. • 3. 1 mL TrypLE™ Express was added to the flask, mixed well by gentle shaking and cells were incubated at 37° C. for a few minutes. • 4. The cells were checked for morphological change under microscope, the digestion was stopped by adding 2 mL cell culture medium to the flask when most of cells turned to round. • 5. The cell suspension was transferred into a 15 mL centrifuge tube, and then centrifuged at 1,200 rpm for 5 minutes. • 6. The supernatant was removed. The cell pellet were resuspended with 2 mL cell culture medium. • 7. The cell density were counted using cell counter. Only cells with >85% viability were used for the assay. • 8. Cells were diluted to 4×10^5/mL with cell culture medium. • 9. 30 μL/well cell suspensions were added into a 384-well cell plate (The cell density was 12,000 cells/well). • 10. The cell plate was incubated overnight at 37° C., 5% (v/v) CO2.
• 1. On the day of experiments, culture medium was removed from the cell plate. • 2. 10 μL of assay buffer (20 mM HEPES, in 1×HBSS, pH 7.4) was added to each well of the cell plate. • 3. 2× dye solution was prepared following the manufacture's instruction of the FLIPR® Calcium 6 assay kit: • i. The dye was diluted with assay buffer. • ii. probenecid was added to the final concentration of 5 mM. • iii. Vortexed vigorously for 1-2 minutes, adjust pH to 7.4. • 4. 10 μL of 2×dye solution was added to each well of the cell plate. • 5. The cell plate was placed on plate shaker, followed by shaking at 600 rpm for 2 minutes. • 6. The plate was incubated at 37° C. for 2 hours followed by an additional 15-minute incubation at 25° C. 3.4 Prepare 3×compounds. • 1. Serotonin was prepared to the concentration of 10 mM with DMSO, 3-folds serial dilutions were performed with DMSO. • 2. Prepare the test compound to the concentration of 10 mM with DMSO, preform 3-folds serial dilutions with DMSO. • 3. The compounds were added to a 384-well compound source plate. • 4. 90 nL/well of serial diluted compounds were transferred from source plate to a 384-well compound plate by using an Echo. • 5. 30 μL/well of assay buffer was added to the compound plate. • 6. The plate was mixed on-plate shaker for 2 minutes. 3.5 FLIPR assay • 1. After the cells incubate with dye solution, the cell plate, compound plate containing 3×compounds and FLIPR tips were placed into FLIPR. • 2. 10 μL of 3×compounds were transferred from the compound plate to the cell plate by FLIPR. • 3. The plate was read for 160 sec with 1 sec interval to obtain the data of agonist mode.
• 1. The normalized fluorescence reading (RFU) was calculated as shown below, wherein Fmax and Fmin stand for maximum and minimum of calcium signal during defined time window:
RFU=Fmax−Fmin • 2. EC50 was calculated by fitting RFU against log of compound concentrations with Hill equation using XLfit.

The structures appear in SMILES notation.

We go through ten compounds from US20260356814A1, “INDOLINE DERIVATIVES AS SEROTONERGIC AGENTS USEFUL FOR THE TREATMENT OF DISORDERS RELATED THERETO” (MINDSET PHARMA INC., priority 2022, published 2026).

As to `[2H]C([2H])([2H])N(CCN1CCc2ccc(OC)cc21)C([2H])([2H])[2H]` [Compound I-70, 2-(6-Methoxyindolin-1-yl)-N, N-bis(methyl-d3) ethan-1-amine], the “RFU@10 μM” value is reported as 161 RFU.
Consider `COc1ccc2c(c1)N(C[C@H]1CCCN1)CC2` [(R)-I-59, (R)-6-Methoxy-1-(pyrrolidin-2-ylmethyl) indoline], for which the “RFU@10 μM” value stood at 521 RFU.
The same measure, in the same setting: for `COc1cccc2c1CCN2C[C@H]1CCCN1C` [(R)-I-47, (R)-4-Methoxy-1-((1-methylpyrrolidin-2-yl)methyl) indoline] the value was 70 RFU; for `COc1cc2c(cc1OC)N(C[C@H]1CCCN1C)CC2` [(R)-I-34, (R)-5,6-dimethoxy-1-((1-methylpyrrolidin-2-yl)methyl) indoline], 155 RFU.
With `COc1ccc2c(c1)N(C[C@H]1CCCN1C)CC2` [(R)-I-58, (R)-6-Methoxy-1-((1-methylpyrrolidin-2-yl)methyl) indoline], the “RFU@10 μM” value was determined as 2444 RFU and the EC50 came to 2.04 µM.
Turning to `[2H]C([2H])([2H])N(CCN1CCc2ccccc21)C([2H])([2H])[2H]` [Compound I-71, 2-(Indolin-1-yl)-N,N-bis(methyl-d3) ethan-1-amine], the “RFU@10 μM” value was 145 RFU.
With `[2H]C([2H])([2H])Oc1ccc2c(c1)N(C([2H])([2H])[C@H]1CCCN1C([2H])([2H])[2H])CC2` [(R)-I-28, (R)-6-(Methoxy-d3)-1-((1-(methyl-d3)pyrrolidin-2-yl)methyl-d2) indoline], the “RFU@10 μM” value came out at 1981 RFU and the EC50 is 2.34 µM.
With `[2H]C([2H])([2H])N1CCC[C@@H]1C([2H])([2H])N1CCc2ccccc21` [(R)-I-1, (R)-1-((1-(Methyl-d3)pyrrolidin-2-yl)methyl-d2) indoline], the “RFU@10 μM” value stood at 84 RFU.
For `[2H]C([2H])([2H])N1CCC[C@@H]1C([2H])([2H])N1CCc2ccc(OC)cc21` [(R)-I-57, (R)-6-Methoxy-1-((1-(methyl-d3)pyrrolidin-2-yl)methyl-d2) indoline], the “RFU@10 μM” value came out at 2081 RFU and the EC50 turned out to be 1.26 µM.
On to `COc1cccc2c1N(C[C@H]1CCCN1C)CC2` [(R)-I-46, (R)-7-Methoxy-1-((1-methylpyrrolidin-2-yl)methyl) indoline], for which the “RFU@10 μM” value is on record as 373 RFU.
